We go through 67 compounds from US8981111B2 (priority 2008, dated 2015).

Molecules are shown by their SMILES.

A short description of the data set: log P (HPLC/MS data of the preparation examples). As to conditions: for log p: EEC directive 79/831 Annex V.A8; for chromatographic logP: HCOOH (formic acid).
The mark [1] stands for this setting: HPLC (LC-MS) method [b]: pH 2.7, 0.1% formic acid in water and acetonitrile, linear gradient 10% to 95% acetonitrile.

For `Cn1cncc1C(=NOCc1cccc(N2C(=O)c3ccccc3C2=O)n1)c1cccs1` [Example 420], under setting [1], the log p is 1.66^[b]. `Cn1cncc1C(=NOCc1csc(N)n1)c1cccs1` [Example 421]: the log p under setting [1] is 0.22^[b]. As to `Cn1cncc1C(=NOCc1csc(N)n1)c1ccsc1` [Example 422], the log p under setting [1] is 0.45^[b]. Still for that read-out and setting: as for `Cn1cncc1C(=NOCc1cccc(N)n1)c1cccs1` [Example 423], the figure is 0.08^[b]. Consider `CCCCCOC(=O)Nc1cccc(CON=C(c2ccsc2)c2cncn2C)n1` [Example 425], for which the log p under setting [1] was 2.82^[b]. In the case of `CCCCCC(=O)Nc1nc(CON=C(c2ccsc2)c2cncn2C)cs1` [Example 428], the log p under setting [1] was 1.99^[b]. On to `CCCCCC(=O)Nc1nc(CON=C(c2cccs2)c2cncn2C)cs1` [Example 429], for which the log p under setting [1] is 1.93^[b]. For the compound `Cn1cncc1C(=NOCc1cccc(NC(=O)COc2ccccc2)n1)c1cccs1` [Example 431], the log p under setting [1] was 1.94^[b]. Same read-out and setting: as for `CC(C)C(=O)Nc1nc(CON=C(c2cccs2)c2cncn2C)cs1` [Example 433], the figure is 1.53^[b]; as for `Cn1cncc1C(=NOCc1csc(NC(=O)COc2ccccc2)n1)c1cccs1` [Example 434], 1.87^[b]; as for `Cn1cncc1C(=NOCc1cccc(NC(=O)COc2ccccc2)n1)c1ccsc1` [Example 435], 1.96^[b].

As for `Cn1cncc1C(=NOCc1cccc(NC(=O)C(C)(C)C)n1)c1ccsc1` [Example 436], under setting [1], the log p was 1.7^[b]. Regarding `CCCC(=O)Nc1cccc(CON=C(c2ccsc2)c2cncn2C)n1` [Example 437], the log p under setting [1] is 1.52^[b]. On to `CCCCCCC(=O)Nc1cccc(CON=C(c2ccsc2)c2cncn2C)n1` [Example 438], for which the log p under setting [1] was 2.25^[b]. For `CC(C)C(=O)Nc1cccc(CON=C(c2ccsc2)c2cncn2C)n1` [Example 439], the log p under setting [1] was 1.5^[b].

As for `CCCCC(=O)Nc1cccc(CON=C(c2ccsc2)c2cncn2C)n1` [Example 440], the log p under setting [1] is 1.75^[b]. Consider `CCCCCCCCCC(=O)Nc1cccc(CON=C(c2ccsc2)c2cncn2C)n1` [Example 441], for which the log p under setting [1] is 3.02^[b]. Turning to `CC(C)CC(=O)Nc1cccc(CON=C(c2ccsc2)c2cncn2C)n1` [Example 442], the log p under setting [1] was 1.7^[b].

`Cn1cncc1C(=NOCc1cccc(NC(=O)C(C)(C)C)n1)c1cccs1` [Example 443]: the log p under setting [1] was 1.7^[b]. On to `CCCC(=O)Nc1cccc(CON=C(c2cccs2)c2cncn2C)n1` [Example 445], for which the log p under setting [1] is 1.5^[b]. With `CCCCCCCCCC(=O)Nc1cccc(CON=C(c2cccs2)c2cncn2C)n1` [Example 448], the log p under setting [1] was 2.98^[b]. Regarding `Cn1cncc1C(=NOCc1csc(NC(=O)C(C)(C)C)n1)c1cccs1` [Example 449], the log p under setting [1] was 1.67^[b]. `CC(C)CC(=O)Nc1nc(CON=C(c2cccs2)c2cncn2C)cs1` [Example 450]: the log p under setting [1] was 1.66^[b]. With `CCCC(=O)Nc1nc(CON=C(c2cccs2)c2cncn2C)cs1` [Example 451], the log p under setting [1] is 1.47^[b]. Still for that read-out and setting: as for `CCCCCCC(=O)Nc1nc(CON=C(c2cccs2)c2cncn2C)cs1` [Example 452], the figure is 2.14^[b]; as for `CCCCC(=O)Nc1nc(CON=C(c2cccs2)c2cncn2C)cs1` [Example 453], 1.7^[b]. As for `CCCCCCCCCC(=O)Nc1nc(CON=C(c2cccs2)c2cncn2C)cs1` [Example 454], under setting [1], the log p is 2.86^[b].

For `CCC(C(=O)Nc1cccc(CON=C(c2cccs2)c2cncn2C)n1)c1ccccc1` (stereo not shown) [Example 455], the log p under setting [1] is 2.2^[b]. `Cn1cccc1C(=NOCc1cccc(N2C(=O)c3ccccc3C2=O)n1)c1ccc(Cl)nc1` [Example 463]: the log p under setting [1] is 3.78^[b].

`Cn1cccc1C(=NOCc1cccc(N)n1)c1ccc(Cl)nc1` [Example 464]: under setting [1], the log p is 1.72^[b]. With `Cn1ncnc1C(=NOCc1cccc(N2C(=O)c3ccccc3C2=O)n1)c1ncc(C(F)(F)F)cc1Cl` [Example 465], under setting [1], the log p is 3.15^[b].

Turning to `Cn1ncnc1C(=NOCc1cccc(N)n1)c1ncc(C(F)(F)F)cc1Cl` [Example 466], the log p under setting [1] is 1.3^[b]. Regarding `Cn1ncnc1C(=NOCc1cccc(NC(=O)Cc2ccccc2)n1)c1ncc(C(F)(F)F)cc1Cl` [Example 467], under setting [1], the log p is 3.46^[b]. `CCCCCC(=O)Nc1cccc(CON=C(c2ncc(C(F)(F)F)cc2Cl)c2ncnn2C)n1` [Example 468]: under setting [1], the log p is 3.85^[b]. In the case of `CCCCCOC(=O)Nc1cccc(CON=C(c2ncc(C(F)(F)F)cc2Cl)c2ncnn2C)n1` [Example 469], the log p under setting [1] is 4.41^[b]. Turning to `Cn1ncnc1C(=NOCc1cccc(NC(=O)C(C)(C)C)n1)c1ncc(C(F)(F)F)cc1Cl` [Example 470], the log p under setting [1] was 3.44^[b].

Regarding `Cn1ncnc1C(=NOCc1cccc(NC(=O)CCc2ccccc2)n1)c1ncc(C(F)(F)F)cc1Cl` [Example 471], under setting [1], the log p is 3.73^[b]. Consider `Cn1ncnc1C(=NOCc1nccc(N)n1)c1ncc(C(F)(F)F)cc1Cl` [Example 472], for which, under setting [1], the log p was 1.2^[b]. On the same count and under the same terms, as for `Cn1ncnc1C(=NOCc1csc(N)n1)c1ncc(C(F)(F)F)cc1Cl` [Example 473], the figure is 1.56^[b]; as for `CCCCCC(=O)Nc1ccnc(CON=C(c2ncc(C(F)(F)F)cc2Cl)c2ncnn2C)n1` [Example 474], 3.51^[b]; as for `CCCCCOC(=O)Nc1ccnc(CON=C(c2ncc(C(F)(F)F)cc2Cl)c2ncnn2C)n1` [Example 475], 3.8^[b].

As to `Cn1ncnc1C(=NOCc1nccc(NC(=O)Cc2ccccc2)n1)c1ncc(C(F)(F)F)cc1Cl` [Example 476], the log p under setting [1] was 3.13^[b].

Consider `Cn1ncnc1C(=NOCc1nccc(NC(=O)CCc2ccccc2)n1)c1ncc(C(F)(F)F)cc1Cl` [Example 477], for which the log p under setting [1] was 3.39^[b].

Take `CC(C)CC(=O)Nc1ccnc(CON=C(c2ncc(C(F)(F)F)cc2Cl)c2ncnn2C)n1` [Example 478]: the log p under setting [1] is 3.06^[b].

Take `CCCCCC(=O)Nc1nc(CON=C(c2ncc(C(F)(F)F)cc2Cl)c2ncnn2C)cs1` [Example 479]: the log p under setting [1] was 3.6^[b]. For the compound `CCCCCOC(=O)Nc1nc(CON=C(c2ncc(C(F)(F)F)cc2Cl)c2ncnn2C)cs1` [Example 480], the log p under setting [1] was 3.94^[b]. Turning to `Cn1ncnc1C(=NOCc1csc(NC(=O)C(C)(C)C)n1)c1ncc(C(F)(F)F)cc1Cl` [Example 481], the log p under setting [1] is 3.27^[b]. Take `Cn1ncnc1C(=NOCc1csc(NC(=O)Cc2ccccc2)n1)c1ncc(C(F)(F)F)cc1Cl` [Example 482]: the log p under setting [1] is 3.27^[b]. For the compound `Cn1ncnc1C(=NOCc1csc(NC(=O)CCc2ccccc2)n1)c1ncc(C(F)(F)F)cc1Cl` [Example 483], the log p under setting [1] is 3.51^[b].

For `CC(C)CC(=O)Nc1nc(CON=C(c2ncc(C(F)(F)F)cc2Cl)c2ncnn2C)cs1` [Example 484], the log p under setting [1] is 3.19^[b]. In the case of `COC(=O)c1ccc(C(F)(F)F)nc1CON=C(c1ccccn1)c1ccccn1` [Example 485], the log p (HPLC method [a]: pH 2.3, 0.1% phosphoric acid and acetonitrile as eluent) is 2.48^[a].

For `Cc1cccnc1C(=NOCc1csc(N)n1)c1cc(C(F)(F)F)ccn1` [Example 486], under setting [1], the log p was 1.57^[b]. For the compound `Cc1cccnc1C(=NOCc1csc(NC(=O)C(C)(C)C)n1)c1cc(C(F)(F)F)ccn1` [Example 487], the log p under setting [1] is 3.44^[b].

Turning to `Cc1cccnc1C(=NOCc1csc(NC(=O)CC(C)C)n1)c1cc(C(F)(F)F)ccn1` [Example 488], the log p under setting [1] is 3.31^[b]. For the compound `CCCCCOC(=O)Nc1nc(CON=C(c2cc(C(F)(F)F)ccn2)c2ncccc2C)cs1` [Example 489], the log p under setting [1] is 4.13^[b]. For `CCCCCC(=O)Nc1nc(CON=C(c2cc(C(F)(F)F)ccn2)c2ncccc2C)cs1` [Example 490], the log p under setting [1] is 3.76^[b]. Consider `Cn1cncc1C(=NOCc1cccc(N)n1)c1ccsc1` [Example 493, 6-[({[(1-methyl-1H-imidazol-5-yl)(3-thienyl)methylene]amino}oxy)methyl]pyridin-2-amine], for which the chromatographic logP turned out to be 0.39.

Regarding `Cn1cncc1C(=NOCc1cccc(N2C(=O)c3ccccc3C2=O)n1)c1cccs1` [Example 494, 2-{6-[({[(1-methyl-1H-imidazol-5-yl)(2-thienyl)methylene]amino}-oxy)methyl]pyridin-2-yl}-1H-isoindole-1,3(2H)-dione], the chromatographic logP stood at 1.66. The same measure, in the same setting: then `Cn1cncc1C(=NOCc1csc(N)n1)c1cccs1` [Example 495, 4-[({[(1-methyl-1H-imidazol-5-yl)(2-thienyl)methylene]amino}oxy)methyl]-1,3-thiazol-2-amine], with 0.22. In turn, `Cn1cncc1C(=NOCc1csc(N)n1)c1ccsc1` [Example 496, 4-[({[(1-methyl-1H-imidazol-5-yl)(3-thienyl)methylene]amino}oxy)methyl]-1,3-thiazol-2-amine] came in with a chromatographic logP of 0.45. As to `Cn1ccnc1C(=NO)c1ccccc1` [N-hydroxy-1-(1-methyl-1H-imidazol-2-yl)-1-phenylmethanimine], the chromatographic logP is 0.24. In turn, `Cn1cncc1C(=NO)c1cccs1` [N-hydroxy-1-(1-methyl-1H-imidazol-5-yl)-1-(2-thienyl)methanimine] displayed a chromatographic logP of 0.45.

In turn, `Cn1cncc1C(=NO)c1ccsc1` [N-hydroxy-1-(1-methyl-1H-imidazol-5-yl)-1-(3-thienyl)methanimine] gave a chromatographic logP of 0.21. On to `Cn1cncc1C(=NO)c1ccccc1` [N-hydroxy-1-(1-methyl-1H-imidazol-5-yl)-1-phenylmethanimine], for which the chromatographic logP came out at 0.41. Turning to `Cc1nocc1C(=NO)c1cccs1` [N-hydroxy-1-(3-methyl-1,2-oxazol-4-yl)-1-(2-thienyl)methanimine], the chromatographic logP amounted to 1.75. `CON(C)C(=O)c1cccs1` [N-methoxy-N-methylthiophene-2-carboxamide] yielded a chromatographic logP of 1.44. Take `CON(C)C(=O)c1ccsc1` [N-methoxy-N-methylthiophene-3-carboxamide]: the chromatographic logP is 1.3.

As usually defined, the chromatographic logP is a lipophilicity value derived from retention on a column. Higher therefore signals a more lipophilic compound.
